Patent US8323909B2, “Methods of identifying small molecules for renewals, survival and migration of cardiac progenitors” (The Regents of the University of California, priority 2006, dated 2012)

Tested on: isl1+ cardiac progenitor cells
Assay: Chemical compound screen with β-gal tagged isl1+ cardiac progenitors (luciferase/β-gal activity, β-gal+ cell count, isl1 immunohistochemistry)
Format: cell-based, mouse
Excerpt: The inventors developed an assay based on the β-gal tagged cardiac progenitors to identify small molecules and defined factors that can trigger the renewal of the cardiac progenitors (FIGS. 4A and 4B). The isl1-mER-Cre-mER knock-in mice were utilized to conditionally mark embryonic and post-natal isl1+ cardiac progenitors. Mice which are double heterozygous for the isl1-mER-Cre-mER and the R26R-indicator allele allow the purification of a relatively homogeneous population of isl1+ cardiac progenitors after amplification on mesenchymal feeder layers.
The β-gal substrate 6-O-β-galactopyranosyl-luciferin allows luciferase-mediated detection of light emission in genetically lacZ labelled cells in a high throughput manner (FIGS. 4A and 4B). 6-O-galactopyranosyl-luciferin is cleaved by (3-gal into D-Luciferin, which is processed by luciferase in an ATP-dependent step into Oxyluciferin and light.
After screening a small molecule library containing over 15,000 compounds, a series of compounds that can trigger the expression of lacZ activity as well as the induction of the isl1 protein in cultured cardiac progenitor preparations was identified.
The screen was based on three independent read-out systems. First, the chemical compound library was screened for luciferase activity, and thereby indirectly for β-gal activity of proliferating cells. Second, β-gar progenitor cells were counted within the mesenchymal feeder layers with and without compound treatment, and third, expression of the transcription factor isl1^+ per progenitor cell was screened in an immunohistochemically based analysis.

O=C1Nc2cc(Br)ccc2/C1=C1/Nc2ccccc2/C1=N\O [BIO, 6-bromoindirubin-3′-oxime]
effect on the proliferation capacity of isl1+ cardiac progenitor cells: 50-80 fold | β-galactosidase activity (cardiac progenitor cells from isl1-mER-Cre-mER/R26R mice, after 4 days in culture, luciferase assay): significant increase | β-gal+ progenitor cell number (cells counted within mesenchymal feeder layers with and without compound treatment): significant increase | proliferation of isl1+ precursor cells (result in words (FIG. 5 legend)): significant increase
